In US5861403A, “Purinylalkyl benzamide derivatives” (G. D. Searle & Co., priority 1996, dated 1999):

target: T1, Human Platelet Receptor (Homo sapiens, UniProt P25105); test: Human Platelet Receptor Binding (inhibition of specific binding of [^3 H]PAF to human platelet membrane preparation); conditions: 0.5 h, 0.75 nM [^3 H]PAF, human platelet membranes, read-out: Human Platelet Receptor, % @ 10 μM (percent displacement)
T1 construct: tissue Lifesource, Inc. (Glenview, Ill.); host or cells: human packed platelets, washed, broken by freeze-thaw; membrane pellet
Procedure: Assay B: Human Platelet Receptor Binding
Compounds of the invention were evaluated for their ability to inhibit specific binding of [^3 H]PAF to human platelet membrane preparation. Human packed platelets were obtained from Lifesource, Inc. (Glenview, Ill.) and washed 3 times with 10 mM Trizma pH 7.0, 2 mM EDTA (dipotassium salt), 150 mM KCl and then once with 10 mM Trizma 7.4, 20 mM CaCl2. The platelets were broken by freezing in a dry ice-ethanol bath, followed by thawing in 24° C. water baths. The preparation was centrifuged (40,000 x g, 20 minutes, […]) and the pellet suspended in 10 mM Trizma 7.4, 20 mM CaCl2, 5 mg/ml human albumin. Protein concentration in the platelet membrane preparation was determined by the Lowry method [O. H. Lowry et al., J. Biol. Chem., 193, 265-275 (1951)]. Aliquots of the membrane preparation were stored at -70° C. Each preparation was characterized for PAF receptor number and dissociation constant (Kd). In binding assays 5 μl of test compound, solubilized in DMSO, was added to polypropylene tubes along with 0.75 nM [^3 H]PAF and 200 mcl [[…]] of membranes and 95 μl 10 mM Trizma 7.4, 20 mM CaCl2, 5 mg/ml human albumin. Tubes were incubated for 30 minutes at 24° C. The incubation was terminated by adding 4 ml of ice-cold 10 mM Trizma pH 7.4, 20 mM CaCl2 and 20 mg/ml BSA prior to vacuum filtration using Whatman GF/C filters. Filters were prepared and counted in a scintillation counter. All DPM values (disintergrations per minute) were-corrected for background and isotope decay. Triplicate determinations for single doses were averaged. […] The IC50 values for the compounds of the invention were determined by the Allfit program using percent displacement data. (Allfit is a `basic` computer program for simultaneous curve fitting of a family of signoidal dose-response curves using the four parameter logistic equation.) Results are shown in Table I. In Table 1 "N.D." means not determined; "c-pent" means cyclopentyl; "c-hex" means cyclohexyl; "i-Pr" means isopropyl; "Me" means methyl; and "OMe" means methoxy.

T1 sequence (P25105 whole entry): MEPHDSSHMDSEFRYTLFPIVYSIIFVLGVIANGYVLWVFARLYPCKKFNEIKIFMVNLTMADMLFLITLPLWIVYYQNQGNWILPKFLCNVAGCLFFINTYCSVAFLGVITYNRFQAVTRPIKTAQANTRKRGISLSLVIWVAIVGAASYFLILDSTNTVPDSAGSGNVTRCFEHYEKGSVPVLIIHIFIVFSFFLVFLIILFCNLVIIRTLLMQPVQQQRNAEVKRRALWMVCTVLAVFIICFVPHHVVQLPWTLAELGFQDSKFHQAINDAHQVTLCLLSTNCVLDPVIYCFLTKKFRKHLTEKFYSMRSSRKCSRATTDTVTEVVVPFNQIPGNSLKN

Going from COc1cc(Cn2cnc3ncnc-3c2)ccc1C(=O)N(C(C)C)C1CCCCC1 [Example 7, N-cyclohexyl-2-methoxy-N-(1-methylethyl)-4-(1H-purin-1-ylmethyl)benzamide] to CC(C)N(C(=O)c1ccc(Cn2cnc3ncnc-3c2)cc1)C1CCCCC1 [Example 8, N-cyclohexyl-N-(1-methylethyl)-4-(1H-purin-1-ylmethyl)benzamide], the inhibition at 10 µM falls from 40% to 19%.

In the case of COc1cc(Cn2cnc3ncncc32)ccc1C(=O)N(C(C)C)C1CCCCC1 [Example 2B, N-cyclohexyl-2-methoxy-N-(1-methylethyl)-4-(7H-purin-7-ylmethyl)benzamide], the inhibition at 10 µM is reported as 44%.
